Results taken from patent publication US20220305000A1 (Cellworks Group Inc., priority 2021, published 2022).
Read-outs that look alike come from different tables or passages of the source.

Columns and labels:
[1] = system: MPN patients (JAK2 and non JAK2 populations); experiment: Efficacy of standard of care drugs on patient cohort; conditions: for sensitive in % of JAK2 patient populations: JAK2 patients; for resistance in % of non JAK2 patient's population: non JAK2 patients
Excerpt: (§1) Efficacy comparison study of standard of care drugs in MPN Cell Lines and Patients is provided hereunder: […]

[2] = system: MPN Cell Lines (JAK2 and non JAK2 populations); experiment: Efficacy of MPN standard of care drugs tested on cell lines; format: cell-based; conditions: for sensitive in % of JAK2 Cell line populations: JAK2 cell lines; for resistance in % of non JAK2 population: non JAK2 cell lines
Excerpt: as §1

[3] = in vivo, cited from earlier work
[4] = cited from earlier work
[5] = in vivo; cited from earlier work
[6] = system: patients with JAK2 aberration, Chromosome 8 / Chromosome 9 aberration; experiment: Analysis of Ruxolitinib non-responder cases in JAK2 aberration segment (efficacy score, chromosome 8/9 genes)
Excerpt: Next, screening was done for all patient's resistant to Ruxolitinib (JAKAFI®) but sensitive to the drug combination of CQ+M+S.

[7] = system: Jakafi resistant JAK2 V617F harboring BaF3 cell-line; conditions: metformin 0.25 mM, 0.5 mM, 1 mM, 5 mM and 10 mM
Procedure: Relative growth of cells was assessed using MTT assay.
Viable cells % was assessed using MTT assay.
Viable cells % was assessed using MTT assay (FIG. 7a).

[8] = after meal, chloroquine 200 mg morning, metformin 1250 mg morning and evening, rosuvastatin 20 mg evening

SMILES	sensitive in % of JAK2 patient populations [1] [%]	resistance in % of non JAK2 patient's population [1] [%]	sensitive in % of JAK2 Cell line populations [2] [%]	resistance in % of non JAK2 population [2] [%]	MTD (maximum tolerated dose) [3] [mg/day]	Headache, All Grades [5] [%]	also measured
NC(=O)NO [Hydroxyurea]	1	100	0	100			
Nc1ncn([C@H]2C[C@H](O)[C@@H](CO)O2)c(=O)n1 [Decitabine]	34.16	74	50	50			
Nc1ncn([C@@H]2O[C@H](CO)[C@@H](O)[C@H]2O)c(=O)n1 [Azacytidine]	34.16	74	50	50			
CC(C)c1nc(N(C)S(C)(=O)=O)nc(-c2ccc(F)cc2)c1/C=C/[C@@H](O)C[C@@H](O)CC(=O)O [Rosuvastatin, rosuvastatin]					60	8.5	MTD (maximum tolerated dose) ([3]; listed as rosuvastatin): about 60 mg/day; Peak Concentration at Dosage [4, 8]: 0.09 µM; Nausea, All Grades [5]: 6.3%
CCN(CC)CCCC(C)Nc1ccnc2cc(Cl)ccc12 (stereo not shown) [Chloroquine, chloroquine]					600		Response ([6]; Gene MCL1, Chromosome 8, Trisomy 8): Inclusion; MTD (maximum tolerated dose) ([3]; listed as chloroquine): about 600 mg/day; Peak Concentration at Dosage [4, 8]: 1.18 µM; t½ ([4]; in vivo): 20 to 60 days; grade ¾ toxicity [5]: rarely reported
CN(C)C(=N)N=C(N)N [Metformin, metformin]					2500	5.7	Response ([6]; Gene TGFBR1, Chromosome 9, Trisomy 9): Inclusion; cell viability, viable cells % (MTT) [7]: steady decrease in cell viability; MTD (maximum tolerated dose) ([3]; listed as metformin): about 2500 mg/day; Peak Concentration at Dosage ([4]; in vivo): 5.8 µM; Diarrhoea, All Grades [5]: 53%; Nausea, All Grades [5]: 25.5%; grade ¾ toxicity [5]: rarely reported
N#CC[C@H](C1CCCC1)n1cc(-c2ncnc3[nH]ccc23)cn1 [Ruxolitinib, ruxolitinib]	81.18	87.81	75	83.33		14.8	Anemia, All Grades [5]: 96.1%; Neutropenia, All Grades [5]: 18.7%; Thrombocytopenia, All Grades [5]: 69.7%; patients with Anemia of grade 3 or more [5]: 40-45%
Cc1ccc(NC(=O)c2ccc(CN3CCN(C)CC3)cc2)cc1Nc1nccc(-c2cccnc2)n1 [Imatinib]	0.5	100	0	83.33			
O=C1CCC(N2C(=O)c3ccccc3C2=O)C(=O)N1 (stereo not shown) [Thalidomide]	33.17	75.61	75	16.67			
